# Values quoted from earlier work as cited in publication PMC2920223 (Analytical chemistry, 2010).
# Key:
# [1] = test system: puromycin-sensitive aminopeptidases (PSA, NAP and NAP2); conditions: at 20 μM puromycin
# [2] = exogenous YGGFM, rat striatal slices
# [3] = test system: aminopeptidases (aminopeptidase N (APN), puromycin-sensitive aminopeptidase (PSA), NAP and NAP2); conditions: rat
molecule,measurement,setting,value
COc1ccc(C[C@H](N)C(=O)N[C@H]2[C@@H](O)[C@H](n3cnc4c(N(C)C)ncnc43)O[C@@H]2CO)cc1 [puromycin],inhibition of puromycin-sensitive aminopeptidases,[1],effectively inhibited
YGGFM,hydrolysis at Tyr-Gly as share of the total hydrolysis,[2],about 80%
YGGFL,cleaved bond,[3],tyrosine-Gly
